Laboratory results published in patent publication US20230157296A1, “METHODS OF REDUCING FUSARIUM CONTAMINATION” (Taminco BV, priority 2020, published 2023).

Test system: F. oxysporum f. sp. cubense (Foc TR4)
Assay: Panama disease analysis of soil samples after metam sodium field injection
Type: in vivo, Fusarium oxysporum f. sp. Cubense Tropical Race 4
Procedure: Metam Sodium Application. Metam sodium 510 SL (equivalent to 42% w/w) was applied to soil at the following doses: 0 liters per hectare (L/ha), 750 L/ha, 1500 L/ha, 2250 L/ha, 3000 L/ha.
Prior to injection, soil was prepared using a rototiller to break the soil structure from 0 cm to 80 cm deep, allowing for the smooth and even injection application by an injection machine. The soil was then leveled and made uniform, and the metam sodium was applied at two depths: 30 cm and 60 cm, using injection methods. The temperature was at a minimum of 10° C. and soil humidity was between 50 and 60% holding capacity, allowing the applied product to transform from metam sodium (liquid) to MITC (gas).
The application was made using an injection machine wherein the machine lowered shanks and began moving forward such that the shanks lowered to a depth of 60 cm and injectors applied the metam sodium into the soil. When the injection at 60 cm was complete, the process was repeated for the entire field at 30 cm. The treated soil in the field was then sealed using a packer roller (which was part of the injection machinery, located at the back end of the machine), after each application.
Soil Analysis. Soil samples were obtained at 20, 40, and 60 cm before application and every 24 hours beginning 48 hours after application, for seven days.
Plant Pathology Analysis. Soil samples used for Panama Disease and nematode analyses were aseptically isolated in culture medium and incubated for seven days at room temperature. Organisms were identified as follows: 20 grams of composite soil sample was diluted with 40 mL distilled water (dH2O); 1 drop of Tween 20 detergent was added, and the sample mixed. A 1 mL aliquot was taken from the solution and diluted with 9 mL dH2O; three further serial dilutions were made. From each dilution, 100 µL were spread on solid Komada growth medium (Sun et al., Phytopathology 68: 1672-1673, 1978). Growth could be seen 7 days after inoculation.

## CNC(=S)[S-].[Na+] [metam sodium, sodium N-methyldithiocarbamate]
Day 3, 40 cm, T5 3000 L/ha
  Panama Disease F. oxysporum f. sp. cubense: -
Day 3, 60 cm, T2 750 L/ha
  Panama Disease F. oxysporum f. sp. cubense: -
Day 3, 60 cm, T3 1500 L/ha
  Panama Disease F. oxysporum f. sp. cubense: -
Day 3, 60 cm, T4 2250 L/ha
  Panama Disease F. oxysporum f. sp. cubense: -
Day 3, 60 cm, T5 3000 L/ha
  Panama Disease F. oxysporum f. sp. cubense: -
Day 4, 20 cm, T2 750 L/ha
  Panama Disease F. oxysporum f. sp. cubense: -
Day 4, 20 cm, T3 1500 L/ha
  Panama Disease F. oxysporum f. sp. cubense: -
Day 4, 20 cm, T4 2250 L/ha
  Panama Disease F. oxysporum f. sp. cubense: -
Day 4, 20 cm, T5 3000 L/ha
  Panama Disease F. oxysporum f. sp. cubense: -
Day 4, 40 cm, T2 750 L/ha
  Panama Disease F. oxysporum f. sp. cubense: -
Day 4, 40 cm, T3 1500 L/ha
  Panama Disease F. oxysporum f. sp. cubense: -
Day 4, 40 cm, T4 2250 L/ha
  Panama Disease F. oxysporum f. sp. cubense: -
Day 4, 40 cm, T5 3000 L/ha
  Panama Disease F. oxysporum f. sp. cubense: -
Day 4, 60 cm, T2 750 L/ha
  Panama Disease F. oxysporum f. sp. cubense: -
Day 4, 60 cm, T3 1500 L/ha
  Panama Disease F. oxysporum f. sp. cubense: -
Day 4, 60 cm, T4 2250 L/ha
  Panama Disease F. oxysporum f. sp. cubense: -
Day 4, 60 cm, T5 3000 L/ha
  Panama Disease F. oxysporum f. sp. cubense: -
Day 5, 20 cm, T2 750 L/ha
  Panama Disease F. oxysporum f. sp. cubense: -
Day 5, 20 cm, T3 1500 L/ha
  Panama Disease F. oxysporum f. sp. cubense: -
Day 5, 20 cm, T4 2250 L/ha
  Panama Disease F. oxysporum f. sp. cubense: -
Day 5, 20 cm, T5 3000 L/ha
  Panama Disease F. oxysporum f. sp. cubense: -
Day 5, 40 cm, T2 750 L/ha
  Panama Disease F. oxysporum f. sp. cubense: -
Day 5, 40 cm, T3 1500 L/ha
  Panama Disease F. oxysporum f. sp. cubense: -
Day 5, 40 cm, T4 2250 L/ha
  Panama Disease F. oxysporum f. sp. cubense: -
Day 5, 40 cm, T5 3000 L/ha
  Panama Disease F. oxysporum f. sp. cubense: -
Day 5, 60 cm, T2 750 L/ha
  Panama Disease F. oxysporum f. sp. cubense: -
Day 5, 60 cm, T3 1500 L/ha
  Panama Disease F. oxysporum f. sp. cubense: -
Day 5, 60 cm, T4 2250 L/ha
  Panama Disease F. oxysporum f. sp. cubense: -
Day 5, 60 cm, T5 3000 L/ha
  Panama Disease F. oxysporum f. sp. cubense: -
Day 6, 20 cm, T2 750 L/ha
  Panama Disease F. oxysporum f. sp. cubense: -
Day 6, 20 cm, T3 1500 L/ha
  Panama Disease F. oxysporum f. sp. cubense: -
Day 6, 20 cm, T4 2250 L/ha
  Panama Disease F. oxysporum f. sp. cubense: -
Day 6, 20 cm, T5 3000 L/ha
  Panama Disease F. oxysporum f. sp. cubense: -
Day 6, 40 cm, T2 750 L/ha
  Panama Disease F. oxysporum f. sp. cubense: -
Day 6, 40 cm, T3 1500 L/ha
  Panama Disease F. oxysporum f. sp. cubense: -
Day 6, 40 cm, T4 2250 L/ha
  Panama Disease F. oxysporum f. sp. cubense: -
Day 6, 40 cm, T5 3000 L/ha
  Panama Disease F. oxysporum f. sp. cubense: -
Day 6, 60 cm, T2 750 L/ha
  Panama Disease F. oxysporum f. sp. cubense: -
Day 6, 60 cm, T3 1500 L/ha
  Panama Disease F. oxysporum f. sp. cubense: -
Day 6, 60 cm, T4 2250 L/ha
  Panama Disease F. oxysporum f. sp. cubense: -
Day 6, 60 cm, T5 3000 L/ha
  Panama Disease F. oxysporum f. sp. cubense: -
Day 7, 20 cm, T2 750 L/ha
  Panama Disease F. oxysporum f. sp. cubense: -
Day 7, 20 cm, T3 1500 L/ha
  Panama Disease F. oxysporum f. sp. cubense: -
Day 7, 20 cm, T4 2250 L/ha
  Panama Disease F. oxysporum f. sp. cubense: -
Day 7, 20 cm, T5 3000 L/ha
  Panama Disease F. oxysporum f. sp. cubense: -
Day 7, 40 cm, T2 750 L/ha
  Panama Disease F. oxysporum f. sp. cubense: -
Day 7, 40 cm, T3 1500 L/ha
  Panama Disease F. oxysporum f. sp. cubense: -
Day 7, 40 cm, T4 2250 L/ha
  Panama Disease F. oxysporum f. sp. cubense: -
Day 7, 40 cm, T5 3000 L/ha
  Panama Disease F. oxysporum f. sp. cubense: -
Day 7, 60 cm, T2 750 L/ha
  Panama Disease F. oxysporum f. sp. cubense: -
Day 7, 60 cm, T3 1500 L/ha
  Panama Disease F. oxysporum f. sp. cubense: -
Day 7, 60 cm, T4 2250 L/ha
  Panama Disease F. oxysporum f. sp. cubense: -
Day 7, 60 cm, T5 3000 L/ha
  Panama Disease F. oxysporum f. sp. cubense: -
Any of the treated groups (750-3000 L/ha), any day post application
  soil contamination: Foc TR4 detection: No Foc TR4 was detected
